# Reference: ChEMBL document CHEMBL1201862, “PubChem BioAssay data set” (2004)
# Calls of active or inactive are those of the source.
# Assays:
# [1] = target: Luciferin 4-monooxygenase (Photinus pyralis, UniProt P08659); test: Counter Screen for Luciferase-based Assay Positives. [Related pubchem assays: 620, 618, 411 ]
# [2] = system: HT-1080; test: cytotoxicity in HT1080 fibrosarcoma cells, cell-based, fluorescence readout (AID 620); assay type: functional; conditions: Homo sapiens
# [3] = target: T1, Epstein-Barr nuclear antigen 1 (Epstein-Barr virus (strain B95-8) (HHV-4) (Human herpesvirus 4), UniProt P03211); test: EBNA-1 inhibitors, dose response, biochemical, fluorescence polarization, 1536-well (AID 2381); design: species or system human gammaherpesvirus 4;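 note: fluorescence polarization of a Cy5 DNA probe bound by EBNA-1 protein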
# T1 sequence (P03211 whole entry): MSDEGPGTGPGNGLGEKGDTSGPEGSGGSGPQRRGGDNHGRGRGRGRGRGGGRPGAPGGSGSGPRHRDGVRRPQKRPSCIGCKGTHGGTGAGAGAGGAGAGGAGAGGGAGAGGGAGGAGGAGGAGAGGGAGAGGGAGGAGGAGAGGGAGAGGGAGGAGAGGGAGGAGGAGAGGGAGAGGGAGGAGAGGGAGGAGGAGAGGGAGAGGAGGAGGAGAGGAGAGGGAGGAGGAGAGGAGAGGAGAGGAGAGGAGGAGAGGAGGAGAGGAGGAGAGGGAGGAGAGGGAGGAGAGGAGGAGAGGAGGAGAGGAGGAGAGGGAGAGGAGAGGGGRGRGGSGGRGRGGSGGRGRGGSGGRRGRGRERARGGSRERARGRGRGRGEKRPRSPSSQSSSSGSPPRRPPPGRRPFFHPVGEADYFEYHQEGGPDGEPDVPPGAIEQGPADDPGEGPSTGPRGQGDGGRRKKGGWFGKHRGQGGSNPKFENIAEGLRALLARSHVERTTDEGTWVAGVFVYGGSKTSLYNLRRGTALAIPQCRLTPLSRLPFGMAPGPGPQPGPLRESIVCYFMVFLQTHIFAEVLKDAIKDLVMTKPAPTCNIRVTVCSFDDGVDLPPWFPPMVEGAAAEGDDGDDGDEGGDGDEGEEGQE
# [4] = target: T2, Lytic switch protein BZLF1 (Epstein-Barr virus (strain B95-8) (HHV-4) (Human herpesvirus 4), UniProt P03206); test: EBV ZTA inhibitors, dose response, counter-screen for EBNA-1 inhibitor project, biochemical, fluorescence polarization, Epstein-Barr virus, 1536-well (AID 2377); design: species or system human gammaherpesvirus 4;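 note: fluorescence polarization of Cy5-labelled ZRE DNA probe bound by purified Zta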
# T2 sequence (P03206 whole entry): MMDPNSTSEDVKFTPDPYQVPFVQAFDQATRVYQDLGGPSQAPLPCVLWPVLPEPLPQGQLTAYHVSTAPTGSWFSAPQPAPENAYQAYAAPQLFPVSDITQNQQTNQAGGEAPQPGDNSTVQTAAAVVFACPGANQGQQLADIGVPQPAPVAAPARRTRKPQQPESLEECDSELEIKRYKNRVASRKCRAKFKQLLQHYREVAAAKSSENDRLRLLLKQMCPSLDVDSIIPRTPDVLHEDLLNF
# [5] = THP-1 cell cytotoxicity, dose response, cytotoxicity control for Vif-APOBEC3G degradation inhibitor project, THP-1 cells (AID 1117359); assay type: functional; conditions: Human immunodeficiency virus 1, THP-1
# [6] = target: Induced myeloid leukemia cell differentiation protein Mcl-1 (Homo sapiens, UniProt Q07820); test: MCL1-BIM BH3 interaction inhibitors, dose response, biochemical, fluorescence polarization, BIM-BH3 peptide, 1536-well (AID 2217)
# [7] = target: Bcl-2-like protein 1 (Homo sapiens, UniProt Q07817); test: BCL-XL inhibitors, dose response, selectivity assay for MCL1 inhibitor project, biochemical, fluorescence polarization, 1536-well (AID 2218)
# [8] = A Cell Based Secondary Assay To Explore Cytotoxicity of Compounds that Sensitize Mycobacterium Tuberculosis to Beta-Lactam Antibiotics.; assay type: functional
# [9] = target: Eukaryotic translation initiation factor 4H (Homo sapiens, UniProt Q15056); test: human eIF4H binding inhibitors, primary screen, translation initiation inhibitor project, biochemical, uHTS, fluorescence polarization (AID 2012)
# [10] = target: T3, RNA-binding protein pos-1 (Caenorhabditis elegans, UniProt G5EF15); test: inhibitors of POS-1/mex-3 RNA binding, dose response, biochemical, fluorescence polarization (AID 1964);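 note: purified POS-1 fused to maltose binding protein made in E. coli; potency of compounds blocking POS-1 binding to fluorescent RNA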
# T3 sequence (G5EF15 whole entry): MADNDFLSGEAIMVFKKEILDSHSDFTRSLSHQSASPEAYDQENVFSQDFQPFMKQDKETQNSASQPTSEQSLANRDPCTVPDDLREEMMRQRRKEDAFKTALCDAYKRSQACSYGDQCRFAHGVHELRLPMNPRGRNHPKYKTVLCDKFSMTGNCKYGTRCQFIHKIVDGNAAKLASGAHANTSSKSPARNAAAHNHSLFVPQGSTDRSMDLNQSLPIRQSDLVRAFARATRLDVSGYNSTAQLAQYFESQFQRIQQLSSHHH
# [11] = target: T4, Zinc finger protein mex-5 (Caenorhabditis elegans, UniProt Q9XUB2); test: MEX-5/TCR-2 RNA interaction inhibitors, dose response, biochemical, C. elegans, fluorescence polarization (AID 1960)
# T4 sequence (Q9XUB2 whole entry): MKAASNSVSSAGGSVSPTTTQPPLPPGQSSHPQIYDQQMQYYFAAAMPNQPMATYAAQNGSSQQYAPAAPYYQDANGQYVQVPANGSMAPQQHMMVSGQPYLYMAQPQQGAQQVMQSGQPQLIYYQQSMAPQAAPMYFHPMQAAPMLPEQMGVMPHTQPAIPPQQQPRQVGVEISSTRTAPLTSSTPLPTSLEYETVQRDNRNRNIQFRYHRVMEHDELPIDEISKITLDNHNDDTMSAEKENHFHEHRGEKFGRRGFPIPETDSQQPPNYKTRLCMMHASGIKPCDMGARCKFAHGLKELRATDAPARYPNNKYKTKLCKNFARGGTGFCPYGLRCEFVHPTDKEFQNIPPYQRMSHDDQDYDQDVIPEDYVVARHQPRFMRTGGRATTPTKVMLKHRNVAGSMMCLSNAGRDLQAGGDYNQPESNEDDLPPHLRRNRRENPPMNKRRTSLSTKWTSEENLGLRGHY
# [12] = target: Polyadenylate-binding protein 1 (Homo sapiens, UniProt P11940); test: PABP poly(A) RNA binding inhibitors, primary screen, biochemical, fluorescence polarization, uHTS (AID 2014)
# [13] = target: T5, Protein RecA (Mycobacterium tuberculosis, UniProt P9WHJ3); test: Fluorescence Cell-Free Homogeneous Dose Retest to Identify Inhibitors of RecA-Intein Splicing Activity. [Related pubchem assays (depositor defined):AID2097, AID2223, AID489010, AID492950]; assay type: functional
# T5 sequence (P9WHJ3 whole entry): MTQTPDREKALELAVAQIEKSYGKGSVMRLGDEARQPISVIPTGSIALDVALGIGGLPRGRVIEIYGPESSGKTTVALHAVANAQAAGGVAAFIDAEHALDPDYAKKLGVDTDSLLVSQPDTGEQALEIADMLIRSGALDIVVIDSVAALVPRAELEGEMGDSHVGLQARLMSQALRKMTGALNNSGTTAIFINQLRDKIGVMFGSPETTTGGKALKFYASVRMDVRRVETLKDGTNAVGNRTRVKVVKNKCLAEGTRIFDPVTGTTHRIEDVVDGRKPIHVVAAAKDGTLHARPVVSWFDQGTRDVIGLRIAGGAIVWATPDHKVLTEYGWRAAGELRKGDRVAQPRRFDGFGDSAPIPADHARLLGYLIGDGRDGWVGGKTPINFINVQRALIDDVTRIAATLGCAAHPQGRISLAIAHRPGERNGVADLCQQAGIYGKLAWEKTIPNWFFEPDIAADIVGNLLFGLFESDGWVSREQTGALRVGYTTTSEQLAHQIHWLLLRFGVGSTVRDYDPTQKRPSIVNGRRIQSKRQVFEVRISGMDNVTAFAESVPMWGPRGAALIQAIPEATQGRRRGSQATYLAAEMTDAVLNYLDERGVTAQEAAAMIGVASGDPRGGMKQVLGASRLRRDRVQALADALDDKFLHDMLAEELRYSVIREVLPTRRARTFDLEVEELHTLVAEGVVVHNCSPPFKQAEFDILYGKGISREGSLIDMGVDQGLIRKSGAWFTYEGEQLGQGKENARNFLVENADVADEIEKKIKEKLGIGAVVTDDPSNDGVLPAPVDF
# [14] = cytotoxicity in HPDE-C7 cells, cell-based, fluorescence, HTS (AID 430); assay type: functional; conditions: Homo sapiens
# [15] = target: T6, Replicative DNA helicase DnaB (Mycobacterium tuberculosis, UniProt P9WMR3); test: DnaB intein splicing inhibitors, dose response, biochemical, cell-free fluorescence (AID 449749); assay type: functional
# T6 sequence (P9WMR3 whole entry): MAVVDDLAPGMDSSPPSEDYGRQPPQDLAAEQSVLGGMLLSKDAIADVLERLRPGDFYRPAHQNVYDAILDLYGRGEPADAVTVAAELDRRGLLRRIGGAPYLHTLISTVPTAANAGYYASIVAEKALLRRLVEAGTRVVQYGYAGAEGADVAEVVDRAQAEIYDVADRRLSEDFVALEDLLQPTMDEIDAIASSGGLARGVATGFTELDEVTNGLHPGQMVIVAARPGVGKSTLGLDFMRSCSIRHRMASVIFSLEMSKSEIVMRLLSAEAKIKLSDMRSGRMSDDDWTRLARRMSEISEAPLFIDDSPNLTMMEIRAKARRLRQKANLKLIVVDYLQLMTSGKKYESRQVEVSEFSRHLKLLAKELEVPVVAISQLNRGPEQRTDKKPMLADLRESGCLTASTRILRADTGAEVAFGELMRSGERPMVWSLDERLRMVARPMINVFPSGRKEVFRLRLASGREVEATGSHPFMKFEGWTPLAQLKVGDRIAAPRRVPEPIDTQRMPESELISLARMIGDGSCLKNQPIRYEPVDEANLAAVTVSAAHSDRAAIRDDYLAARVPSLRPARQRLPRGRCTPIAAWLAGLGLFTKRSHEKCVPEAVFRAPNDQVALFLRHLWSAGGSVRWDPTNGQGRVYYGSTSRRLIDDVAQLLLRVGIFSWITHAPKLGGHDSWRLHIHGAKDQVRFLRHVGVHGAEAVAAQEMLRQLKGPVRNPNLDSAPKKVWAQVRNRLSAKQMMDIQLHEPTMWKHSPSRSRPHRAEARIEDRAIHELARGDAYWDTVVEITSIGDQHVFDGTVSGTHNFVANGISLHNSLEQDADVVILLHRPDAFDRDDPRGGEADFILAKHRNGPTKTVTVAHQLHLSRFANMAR
# [16] = system: Vero; test: Vero cell cytotoxicity, cytotoxicity control for flavivirus capping enzyme inhibitors (AID 588742); assay type: functional; conditions: Chlorocebus sabaeus
# [17] = cytotoxicity in KRAS-transformed pancreatic duct cells, primary screen, cell-based, fluorescence, HTS (AID 431); assay type: functional; conditions: Homo sapiens;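 note: cell line used: HPDE-C7K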
# [18] = target: Cytochrome P450 2C19 (Homo sapiens, UniProt P33261); test: Cytochrome panel assay with activity outcomes. Panel member name: p450-cyp2c19 Compounds with AC50 equal or less than 10 uM are considered active; assay type: functional
# Sequence of Cytochrome P450 2C19 (P33261 whole entry): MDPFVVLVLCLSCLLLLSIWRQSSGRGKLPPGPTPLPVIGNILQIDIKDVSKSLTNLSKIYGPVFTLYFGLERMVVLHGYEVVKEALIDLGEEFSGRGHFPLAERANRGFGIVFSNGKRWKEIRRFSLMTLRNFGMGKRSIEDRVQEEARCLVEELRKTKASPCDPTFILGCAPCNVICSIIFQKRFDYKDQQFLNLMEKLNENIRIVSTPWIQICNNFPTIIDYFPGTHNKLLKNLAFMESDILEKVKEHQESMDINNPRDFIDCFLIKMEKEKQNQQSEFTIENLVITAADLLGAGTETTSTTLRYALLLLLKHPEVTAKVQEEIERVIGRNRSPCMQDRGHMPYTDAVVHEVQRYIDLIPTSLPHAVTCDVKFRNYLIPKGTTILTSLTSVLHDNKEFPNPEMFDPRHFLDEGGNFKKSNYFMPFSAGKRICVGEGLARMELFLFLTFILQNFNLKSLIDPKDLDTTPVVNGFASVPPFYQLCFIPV
# Sequence of Luciferin 4-monooxygenase (P08659 whole entry): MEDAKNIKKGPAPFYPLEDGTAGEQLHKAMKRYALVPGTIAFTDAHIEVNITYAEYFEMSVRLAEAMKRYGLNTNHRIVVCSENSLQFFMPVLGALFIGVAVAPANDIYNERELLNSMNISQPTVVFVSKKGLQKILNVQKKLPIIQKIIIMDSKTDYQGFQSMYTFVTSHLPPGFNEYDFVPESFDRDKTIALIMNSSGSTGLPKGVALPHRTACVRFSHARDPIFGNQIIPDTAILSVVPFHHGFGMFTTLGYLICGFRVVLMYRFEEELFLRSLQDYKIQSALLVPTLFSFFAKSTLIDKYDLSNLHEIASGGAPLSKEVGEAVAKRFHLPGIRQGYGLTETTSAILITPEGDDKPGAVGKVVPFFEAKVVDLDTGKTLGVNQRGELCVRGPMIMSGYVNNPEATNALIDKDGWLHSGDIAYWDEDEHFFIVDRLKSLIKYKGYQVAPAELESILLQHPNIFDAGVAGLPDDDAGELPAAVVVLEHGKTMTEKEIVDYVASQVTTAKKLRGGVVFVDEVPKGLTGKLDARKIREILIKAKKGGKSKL
# Sequence of Polyadenylate-binding protein 1 (P11940 whole entry): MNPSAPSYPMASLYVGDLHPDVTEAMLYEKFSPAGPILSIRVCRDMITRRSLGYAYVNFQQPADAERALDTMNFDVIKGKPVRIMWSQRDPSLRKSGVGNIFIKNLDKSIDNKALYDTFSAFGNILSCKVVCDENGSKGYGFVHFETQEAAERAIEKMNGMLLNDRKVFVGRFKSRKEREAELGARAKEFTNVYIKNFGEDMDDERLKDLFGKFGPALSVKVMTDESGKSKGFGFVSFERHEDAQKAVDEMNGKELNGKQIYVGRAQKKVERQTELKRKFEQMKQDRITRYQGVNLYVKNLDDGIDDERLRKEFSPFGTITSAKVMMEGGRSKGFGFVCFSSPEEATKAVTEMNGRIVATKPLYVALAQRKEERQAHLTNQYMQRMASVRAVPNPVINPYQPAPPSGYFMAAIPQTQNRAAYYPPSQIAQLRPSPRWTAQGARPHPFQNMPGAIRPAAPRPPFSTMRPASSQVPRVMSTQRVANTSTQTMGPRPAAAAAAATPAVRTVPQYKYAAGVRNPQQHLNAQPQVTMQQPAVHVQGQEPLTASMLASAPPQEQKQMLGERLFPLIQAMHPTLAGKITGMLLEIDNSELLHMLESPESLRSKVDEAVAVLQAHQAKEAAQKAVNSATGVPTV
# Sequence of Bcl-2-like protein 1 (Q07817 whole entry): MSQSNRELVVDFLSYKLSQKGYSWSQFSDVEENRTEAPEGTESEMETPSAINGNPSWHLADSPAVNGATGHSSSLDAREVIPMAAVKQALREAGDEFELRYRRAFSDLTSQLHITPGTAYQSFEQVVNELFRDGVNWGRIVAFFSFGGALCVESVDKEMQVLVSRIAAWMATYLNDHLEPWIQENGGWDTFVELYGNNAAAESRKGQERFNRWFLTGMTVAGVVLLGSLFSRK
# Sequence of Induced myeloid leukemia cell differentiation protein Mcl-1 (Q07820 whole entry): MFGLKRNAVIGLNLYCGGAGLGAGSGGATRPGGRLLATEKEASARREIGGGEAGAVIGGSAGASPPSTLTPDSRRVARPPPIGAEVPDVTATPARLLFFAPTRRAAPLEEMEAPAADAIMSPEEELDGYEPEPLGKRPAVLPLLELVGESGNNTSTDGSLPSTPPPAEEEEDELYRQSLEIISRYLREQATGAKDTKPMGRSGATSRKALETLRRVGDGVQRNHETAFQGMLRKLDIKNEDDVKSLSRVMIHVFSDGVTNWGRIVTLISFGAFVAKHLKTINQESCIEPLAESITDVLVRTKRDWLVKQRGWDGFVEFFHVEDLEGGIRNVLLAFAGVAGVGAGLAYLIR
compound,measurement,setting,value
O=C(Nc1ccc(N2CCCC2)c(Cl)c1)c1ccco1,EC50,[1],< 0.2 µM (active)
same,EC50,[2],> 50 µM (not active)
O=C(Nc1cccc(NC(=O)c2cccs2)c1)c1ccc(Br)cc1,IC50,[3],6.65 µM (active)
same,IC50,[4],> 111 µM (not active)
COc1ccc(O)c(C(=O)CC(=O)c2ccccc2)c1,EC50,[1],5.71 µM (active)
same,EC50,[2],> 50 µM (not active)
CCC(=O)Nc1ccc(C(=O)Nc2ccc3c(c2)C(=O)N(CC2CCCO2)C3=O)cc1 (stereo unspecified),IC50,[3],6.54 µM (active)
same,IC50,[4],> 111 µM (not active)
O=[N+]([O-])c1cc(CN2CCCC2)c2cccnc2c1O,CC50,[5],> 40 µM (active)
same,IC50,[6],2.7 µM (active)
same,IC50,[7],> 109 µM (not active)
COc1ccc(NC(=O)c2ccc(C(=O)Nc3ccc(OC)cc3OC)cc2)c(OC)c1,IC50,[3],19.2 µM (not active)
same,IC50,[4],> 111 µM (not active)
CCOc1ccc(-c2cnc3n2CCC3)cc1,CC50,[8],> 40 µM (active)
CCCSc1nnc(NC(=O)Nc2ccccc2)s1,IC50,[9],> 100 µM (inactive)
same,EC50,[10],> 300 µM (not active)
same,EC50,[11],> 300 µM (not active)
same,IC50,[12],> 100 µM (inactive)
CCCc1n[nH]c2c1C(c1ccc(Br)s1)C(C#N)=C(N)O2 (stereo unspecified),EC50,[13],7.21 µM (active)
same,EC50,[14],5.48 µM (active)
same,AC50,[15],8.54 µM (active)
same,CC50,[16],39.9 µM (active)
same,EC50,[17],7 µM (active)
Cc1ccc(/C(O)=C/C2=NCC(C)NC2=O)cc1 (stereo unspecified),EC50,[1],> 100 µM (not active)
same,EC50,[2],> 50 µM (not active)
same,AC50,[18],inconclusive
